The IC50 is the midpoint of a concentration-inhibition curve.

One test addresses T1, human FAAH (Homo sapiens, UniProt O00519).
T1 construct: expressed in transfected cells; host or cells: H4 cells (H4-FAAH, Geneticin-selected); crude membrane homogenates
T1 sequence (O00519 1-579): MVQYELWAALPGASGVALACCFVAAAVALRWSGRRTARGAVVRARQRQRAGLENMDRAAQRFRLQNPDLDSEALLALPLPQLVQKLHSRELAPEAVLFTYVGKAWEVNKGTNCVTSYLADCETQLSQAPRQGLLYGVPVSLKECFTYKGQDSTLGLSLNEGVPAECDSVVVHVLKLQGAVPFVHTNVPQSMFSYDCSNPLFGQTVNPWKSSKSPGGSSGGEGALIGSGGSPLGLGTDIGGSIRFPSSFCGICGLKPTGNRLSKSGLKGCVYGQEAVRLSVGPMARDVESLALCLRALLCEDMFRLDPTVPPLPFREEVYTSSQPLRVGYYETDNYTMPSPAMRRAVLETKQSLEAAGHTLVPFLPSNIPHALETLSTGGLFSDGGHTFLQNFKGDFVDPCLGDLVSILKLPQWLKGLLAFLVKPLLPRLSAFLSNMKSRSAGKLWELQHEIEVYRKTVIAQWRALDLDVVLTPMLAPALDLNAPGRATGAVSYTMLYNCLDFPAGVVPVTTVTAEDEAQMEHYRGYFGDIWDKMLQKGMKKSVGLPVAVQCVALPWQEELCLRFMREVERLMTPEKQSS
Briefly: FAAH activity in membrane homogenates of H4-FAAH cells, [3H]-anandamide hydrolysis. Format: biochemical.
Details: not given
In a few lines:
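Membranes (240 ng protein) from H4 cells expressing transfected human FAAH, incubated 1 h at room temperature in 125 mM Tris-Cl, pH 9.0, with 1.67 nM [3H]-anandamide plus 10 μM anandamide. Aqueous [3H]-ethanolamine counted after methanol/dichloroethane extraction; background set with 10 μM ATFMK. IC50 from four-parameter logistic fit.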
On to `CCCCOc1cccc(NC(=O)ON=C(C)C)c1` [Example 66, 2-Propanone, O-[[(3-butoxyphenyl)amino]carbonyl]oxime], for which the IC50 is more than 500 nM.
On the same count and under the same terms, to `CCCCCOc1ccc(NC(=O)O/N=C/c2ccc(F)cc2)cc1` [Example 14, 4-Fluorobenzaldehyde, O-[[(4-pentyloxyphenyl)amino]carbonyl]oxime] belongs less than 10 nM.

Staying with this test, now noted: H4-FAAH cell membranes, 10 μM anandamide, room temperature, one hour; read-out: IC50.
Consider `CCCCCCCCCCCOc1ccc(NC(=O)O/N=C/c2ccccc2)cc1` [Example 37, Benzaldehyde, O-[[(4-undecyloxyphenyl)amino]carbonyl]oxime], for which the IC50 is less than 10 nM.
Same read-out and setting: the value for `O=C(Nc1ccc(OCCCc2ccccc2)cc1)O/N=C/c1ccccc1` [Example 86, Benzaldehyde, O-[[[4-(3-phenylpropoxy)phenyl]amino]carbonyl]oxime] was less than 10 nM.
Same read-out and setting: to `CCCCCCCCC(=O)Nc1ccc(NC(=O)O/N=C/c2ccc(F)cc2)cc1` [Example 137, 4-Fluorobenzaldehyde, O-[[(4-Nonanoylamino-phenyl)amino]carbonyl]oxime] belongs 10 to 100 nM; to `O=C(Nc1ccc(OCc2ccccc2)cc1)O/N=C/c1ccc(F)cc1` [Example 81, 4-Fluorobenzaldehyde, O-[[[4-(phenylmethoxy)phenyl]amino]carbonyl]oxime], less than 10 nM; to `O=C(Nc1ccc(Oc2ccccc2)cc1)Oc1ccccc1F` [Example 123, 4-Phenoxyphenylcarbamic acid, 2-fluorophenyl ester], more than 500 nM.
On the same count and under the same terms, to `CCCCOc1ccc(NC(=O)Oc2ccc(F)c(F)c2)cc1` [Example 109, 4-Butoxyphenylcarbamic acid, 3,4-difluorophenyl ester] belongs more than 500 nM.
For the compound `CCOc1ccc(NC(=O)O/N=C/c2cccnc2)cc1` [Example 15, 3-Pyridinecarboxaldehyde, O-[[(4-ethoxyphenyl)amino]carbonyl]oxime], the IC50 lay within 101 to 500 nM.
Same read-out and setting: the value for `CCOc1ccc(NC(=O)O/N=C/c2ccccc2)cc1` [Example 9, Benzaldehyde, O-[[(4-ethoxyphenyl)amino]carbonyl]oxime] was 10 to 100 nM; that for `CCCCCCCCCOc1ccc(NC(=O)ON=C(C)C)cc1` [Example 31, 2-Propanone, O-[[(4-nonyloxyphenyl)amino]carbonyl]oxime] was less than 10 nM.
Regarding `CCCCOc1ccc(CNC(=O)Oc2cccc(N(C)C)c2)cc1` [Example 118, 4-(Butoxyphenylmethyl)carbamic acid, 3-(dimethylamino)phenyl ester], the IC50 is 10 to 100 nM.
In the case of `CCCCOc1ccc(C(CC)NC(=O)Oc2cccc(C(F)(F)F)c2)cc1` (centres unmarked) [Example 130, [1-(4-Butoxy-phenyl)-propyl]-carbamic acid 3-trifluoromethyl-phenyl ester], the IC50 fell in the range of 10 to 100 nM.
For `CCCCOc1ccc(NC(=O)Oc2ccc(Cl)cc2)cc1` [Example 100], the concentration for half-maximal inhibition (IC50) lay in the range of 10 to 100 nM.
Still for that read-out and setting: to `CCCCCCCCCCOc1ccc(NC(=O)Oc2ccccc2F)cc1` [Example 102, 4-Decyloxyphenylcarbamic acid, 2-fluorophenyl ester] belongs less than 10 nM.
On the same count and under the same terms, the value for `O=C(Nc1ccc2[nH]ccc2c1)O/N=C/c1ccccc1` [Example 143, Benzaldehyde, O-[[(1H-indol-5-yl)amino]carbonyl]oxime] was more than 500 nM; that for `CCCCOc1cccc(NC(=O)O/N=C/c2ccc(F)cc2)c1` [Example 68, 4-Fluorobenzaldehyde, O-[[(3-butoxyphenyl)amino]carbonyl]oxime] was 10 to 100 nM; that for `CCCCOc1ccc(NC(=O)O/N=C(/C)Cl)cc1` [Example 155, (1Z)-N-[[[(4-butoxyphenyl)amino]carbonyl]oxy]ethanimidoyl chloride] was less than 10 nM.
In the case of `O=C(Nc1ccc2oc3ccccc3c2c1)O/N=C/c1ccccc1` [Example 154, Benzaldehyde, O-[[(2-dibenzofuranyl)amino]carbonyl]oxime], the IC50 fell in the range of 10 to 100 nM.
As for `CCCCCCOc1ccc(NC(=O)ON=C(C)C)cc1` [Example 22, 2-Propanone, O-[[(4-hexyloxyphenyl)amino]carbonyl]oxime], the half-maximal inhibitory concentration (IC50) lay within 10 to 100 nM.
As to `CCCCCCCCC(=O)Nc1ccc(NC(=O)O/N=C/c2ccc(F)c(F)c2)cc1` [Example 140, 3,4-Difluorobenzaldehyde, O-[[(4-Nonanoylamino-phenyl)amino]carbonyl]oxime], the IC50 fell in the range of 10 to 100 nM.
On the same count and under the same terms, to `CCCCOc1cccc(NC(=O)O/N=C/c2ccccc2)c1` [Example 67, Benzaldehyde, O-[[(3-butoxyphenyl)amino]carbonyl]oxime] belongs 10 to 100 nM; to `CCCCCCOc1ccc(NC(=O)O/N=C/c2cccnc2)cc1` [Example 25, 3-Pyridinecarboxaldehyde, O-[[(4-hexyloxyphenyl)amino]carbonyl]oxime], less than 10 nM.
On the same count and under the same terms, to `CCCOc1ccc(NC(=O)ON=C(C)C)cc1` [Example 7, 2-Propanone, O-[[(4-propoxyphenyl)amino]carbonyl]oxime] belongs 101 to 500 nM.
Take `O=C(Nc1ccc(-c2ccccc2)cc1)O/N=C/c1ccccc1` [Example 72, Benzaldehyde, O-[[([1,1′-biphenyl]-4-yl)amino]carbonyl]oxime]: the IC50 lay within 10 to 100 nM.
The same measure, in the same setting: the value for `CCCCCCCCCOc1ccc(NC(=O)O/N=C/c2ccc(F)cc2)cc1` [Example 48, 4-Fluorobenzaldehyde, O-[[(4-nonyloxyphenyl)amino]carbonyl]oxime] was less than 10 nM; that for `CCOc1ccc(NC(=O)ON=C(C)C)cc1` [Example 6, 2-Propanone, O-[[(4-ethoxyphenyl)amino]carbonyl]oxime] was 101 to 500 nM; that for `CCCCCCCCCCCCOc1ccc(NC(=O)Oc2ccccc2)cc1` [Example 105, 4-Dodecyloxyphenylcarbamic acid, phenyl ester] was less than 10 nM.
The same measure, in the same setting: to `O=C(Nc1ccc(OCCCc2ccccc2)cc1)O/N=C/c1cccnc1` [Example 80, 3-Pyridinecarboxaldehyde, O-[[[4-(3-phenylpropoxy)phenyl]amino]carbonyl]oxime] belongs less than 10 nM; to `CCCCOc1ccc(NC(=O)O/N=C/c2ccc(F)cc2)cc1OC` [Example 20, 4-Fluorobenzaldehyde, O-[[(4-butoxy-3-methoxyphenyl)amino]carbonyl]oxime], 101 to 500 nM.
As for `CCCCOc1ccc(C(CC)NC(=O)Oc2ccc(C(C)C)cc2)cc1` (centres unmarked) [Example 129, [1-(4-Butoxy-phenyl)-propyl]-carbamic acid 4-isopropyl-phenyl ester], the IC50 lay in the range of 101 to 500 nM.
Still for that read-out and setting: to `CCCCCCCCCCCOc1ccc(NC(=O)O/N=C/c2ccc(F)cc2)cc1` [Example 38, 4-Fluorobenzaldehyde, O-[[(4-undecyloxyphenyl)amino]carbonyl]oxime] belongs less than 10 nM; to `CCCCCCCOc1ccc(NC(=O)Oc2ccccc2)cc1` [Example 96, 4-Heptyloxyphenylcarbamic acid, phenyl ester], less than 10 nM.
Consider `O=C(Nc1ccc2[nH]ccc2c1)O/N=C/c1ccc(F)cc1` [Example 142, 4-Fluorobenzaldehyde, O-[[(1H-indol-5-yl)amino]carbonyl]oxime], for which the IC50 is more than 500 nM.
On the same count and under the same terms, to `CCCCCCCCOc1ccc(NC(=O)O/N=C/c2ccc(F)cc2)cc1` [Example 46, 4-Fluorobenzaldehyde, O-[[(4-octyloxyphenyl)amino]carbonyl]oxime] belongs less than 10 nM; to `CCCCOc1ccc(NC(=O)O/N=C/c2cccnc2)cc1OC` [Example 21, 3-Pyridinecarboxaldehyde, O-[[(4-butoxy-3-methoxyphenyl)amino]carbonyl]oxime], more than 500 nM; to `CCCCOc1ccc(NC(=O)Oc2ccc(F)cc2)cc1` [Example 108, 4-Butoxyphenylcarbamic acid, 4-fluorophenyl ester], 101 to 500 nM.
With `CCCCOc1ccc(CNC(=O)Oc2ccc(OC)cc2)cc1` [Example 113, 4-(Butoxyphenylmethyl)carbamic acid, 4-methoxyphenyl ester], the IC50 was less than 10 nM.
Still for that read-out and setting: the value for `O=C(Nc1ccc2[nH]ccc2c1)O/N=C/c1cccnc1` [Example 141, 3-Pyridinecarboxaldehyde, O-[[(1H-indol-5-yl)amino]carbonyl]oxime] was more than 500 nM.
As for `O=C(Nc1c[nH]c2ccccc12)O/N=C/c1ccccc1` [Example 145, Benzaldehyde, O-[[(1H-indol-3-yl)amino]carbonyl]oxime], the IC50 is more than 500 nM.
On the same count and under the same terms, the value for `CCCCCCOc1ccc(NC(=O)Oc2ccccc2F)cc1` [Example 94, 4-Hexyloxyphenylcarbamic acid, 2-fluorophenyl ester] was more than 500 nM; that for `CCCCOc1ccc(NC(=O)O/N=C/c2ccccc2)cc1` [Example 39, Benzaldehyde, O-[[(4-butoxyphenyl)amino]carbonyl]oxime] was less than 10 nM.
Regarding `CCCCCCOc1ccc(NC(=O)O/N=C/c2ccccc2)cc1` [Example 23, Benzaldehyde, O-[[(4-hexyloxyphenyl)amino]carbonyl]oxime], the IC50 is less than 10 nM.
Still for that read-out and setting: the value for `CCCCOc1ccc(C(CC)NC(=O)Oc2ccc(OC)cc2)cc1` (centres unmarked) [Example 126, [1-(4-Butoxy-phenyl)-propyl]-carbamic acid 4-methoxy-phenyl ester] was 10 to 100 nM.

The record behind these values is US6949574B2 (Bristol-Myers Squibb Company, priority 2002, dated 2005).
